Earlier results, collected in US20100172981A1, “Ibuprofen-Effervescent Preparation Having a High Dissolution Rate and Method for the Production thereof” (Losan Pharma GMBH, priority 2006, published 2010).

Settings: general statement in the background section

solubility / dissolution in water (words, background): dissolves only slowly in water
Compound: CC(C)Cc1ccc(C(C)C(=O)O)cc1.[Na] (stereo not shown) [ibuprofen-sodium]
